The text below walks through data of patent EP0444854B1, “6-Substituted hexahydrobenz[cd]indoles” (ELI LILLY AND COMPANY, priority 1990, dated 1991).

Usually inhibition stands for the drop in the measured response relative to a control, in per cent.

The first test deals with T1, 5-HT1A receptors (Rattus norvegicus, UniProt P19327).
T1 construct: from tissue; host or cells: rat cerebral cortex, crude synaptosomal membranes
T1 sequence (P19327 1-422): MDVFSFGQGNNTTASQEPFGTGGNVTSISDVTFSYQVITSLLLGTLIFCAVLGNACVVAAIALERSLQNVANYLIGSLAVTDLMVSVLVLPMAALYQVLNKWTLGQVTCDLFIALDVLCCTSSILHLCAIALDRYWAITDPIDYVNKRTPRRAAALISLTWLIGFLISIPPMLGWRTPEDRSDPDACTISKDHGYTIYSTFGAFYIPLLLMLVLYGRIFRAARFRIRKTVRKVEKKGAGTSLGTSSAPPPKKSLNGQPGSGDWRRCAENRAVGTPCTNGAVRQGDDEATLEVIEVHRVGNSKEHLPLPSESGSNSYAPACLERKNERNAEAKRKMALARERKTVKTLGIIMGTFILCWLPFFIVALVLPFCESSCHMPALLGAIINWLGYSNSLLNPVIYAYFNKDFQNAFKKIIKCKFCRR
As to the kind of experiment: Inhibition of 3H-8-OH-DPAT binding to synaptosomal membranes from rat cerebral cortex. More on the design: species or system Male Sprague-Dawley rats. Conditions: 0.4 nM 3H-8-OH-DPAT, 37°C, 10 min, read-out: IC50 (concentration in nanomoles which inhibited binding of 8-OH-DPAT by 50%). On the procedure:
This general procedure is set forth in Wong et al., J. Neural Transm. 71:207-218 (1988).
Male Sprague-Dawley rats (110-150 g) from Harlan Industries (Cumberland, IN) were fed a Purina Chow ad libitum for at least 3 days before being used in the studies. Rats were killed by decapitation. The brains were rapidly removed, and the cerebral cortices were dissected out at 4°C.
Brain tissues were homogenized in 0.32 M sucrose. After centrifugation at 1000 x g for 10 min and then at 17000 x g for 20 min, a crude synaptosomal fraction was sedimented. The pellet was suspended in 100 vol of 50 mM Tris-HCl, pH 7.4, incubated at 37°C for 10 min, and centrifuged at 50000 x g for 10 min. The process was repeated and the final pellet was suspended in ice-chilled 50 mM Tris-HCl, pH 7.4. By the radioligand binding method, sites specifically labeled by tritiated 8-hydroxy-2-dipropylamino-1,2,3,4-tetrahydronaphthalene (^3H-8-OH-DPAT) have been identified as 5-HT1A receptors.
Binding of (^3H-8-OH-DPAT) was performed according to the previously described method [Wong et al., J. Neural Transm. 64:251-269 (1985)]. Briefly, synaptosomal membranes isolated from cerebral cortex were incubated at 37°C for 10 min. in 2 ml of 50 mM Tris-HCl, pH 7.4; 10 µM pargyline; 0.6 mM ascorbic acid; 0.4 nM ^3H-8-OH-DPAT; and from […] of test compound. Binding was terminated by filtering samples under reduced pressure through glass fiber (GFB) filters. The filters were washed twice with 5 ml of ice cold buffer and placed in scintillation vials with 10 ml of PCS (Amersham/Searle) scintillation fluid. Radioactivity was measured with a liquid scintillation spectrometer. Unlabeled 8-OH-DPAT at 10 µM was also included in separate samples to establish non-specific binding. Specific binding of ^3H-8-OH-DPAT is defined as the difference of radioactivity bound in the absence and in the presence of 10 µM unlabeled 8-OH-DPAT.
For these compounds which inhibited the binding of ^3H-8-OH-DPAT by less than 50%, the percent of inhibition is given in parenthesis.
Regarding `CCCN(CCC)[C@@H]1Cc2c(C(N)=O)ccc3c2[C@H](CN3)C1` [Example 9, (2aR,4S)-4-(di-n-propylamino)-6-aminocarbonyl-1,2,2a,3,4,5-hexahydrobenz[c,d]indole], the IC50 was 11 nM.

Turning to `CCCN(CCC)[C@H]1Cc2c(C(N)=O)ccc3c2[C@@H](CN3)C1` [Example 10, (2aS, 4R)-4-(di-n-propyl)-6-aminocaronyl-1,2,2a,3,4,5-hexahydrobenz[c,d]indole], the IC50 was 2.1 nM.

Regarding `CCCN(CCC)[C@H]1Cc2c(C(=O)OC)ccc3c2[C@@H](CN3)C1` [Example 11, Methyl (2aS,4R)-4-(Di-n-propylamino)-1,2,2a,3,4,5-hexahydrobenz[c,d]indole-6-carboxylate], the IC50 is 5.7 nM.

On to `CCCN(CCC)[C@H]1Cc2c(C(=O)N(C)C)ccc3c2[C@@H](CN3)C1` [Example 12, (2aS,4R)-N,N-Dimethyl-4-(di-n-propylamino)-1,2,2a,3,4,5-hexahydrobenz[cd]indole-6-carboxamide], for which the IC50 was found to be 5.1 nM.

Staying with this test, now noted: at 100 nanomoles of test compound, 0.4 nM 3H-8-OH-DPAT, read-out: percent of inhibition of binding of 8-OH-DPAT at 100 nanomoles if less than 50%.
As for `N[C@@H]1Cc2c(Br)ccc3c2[C@@H](C1)CN3C(=O)c1ccccc1` [Example 1, (2aR,4S)-1-benzoyl-4-amino-6-bromo-1,2,2a,3,4,5-hexahydrobenz[cd]indole], the inhibition at 0.1 µM was 6%.

`CCCN(CCC)[C@@H]1Cc2c(Br)ccc3c2[C@@H](C1)CN3C(=O)c1ccccc1` [Example 3, (2aR, 4S)-1-Benzoyl-4-(di-n-propyl)-amino-6-bromo-1,2,2a,3,4,5-hexahydrobenz[cd]indole]: the inhibition at 0.1 µM stood at 5%.

With `CCCN(CCC)[C@@H]1Cc2c(C#N)ccc3c2[C@@H](C1)CN3C(=O)c1ccccc1` [Example 5, (2aR,4S)-1-benzoyl-4-(di-n-propyl)amino-6-cyano-1,2,2a,3,4,5-hexahydrobenz[cd]indole], the inhibition at 0.1 µM was determined as 11%.

As for `CCCN(CCC)[C@@H]1Cc2c(C#N)ccc3c2[C@H](CN3)C1` [Example 7, (2aR,4S)-4-(di-n-propyl)amino-6-cyano-1,2,2a,3,4,5-hexahydrobenz[cd]indole], the inhibition at 0.1 µM was 21%.
